Values quoted from earlier work as cited in US11197931B2, “Liquid injectable copolymer” (Queen's University at Kingston, priority 2017, dated 2021).

Conditions: 25° C.

saturation concentration: 80 mg/L
SMILES: C[C@]12C=CC(=O)C=C1CC[C@H]1[C@@H]3C[C@@H](O)[C@](O)(C(=O)CO)[C@@]3(C)C[C@H](O)[C@@]12F [triamcinolone]
